ChEMBL document CHEMBL3046135, “Iodine (III)-mediated synthesis of some 2-aryl/hetarylbenzoxazoles as antibacterial/antifungal agents” (2010)
Active and inactive are the calls of the source. No cut-off for these calls is given here.

Tests used:
Type in all cases: functional
Pseudomonas putida [1] = test: Antibacterial activity against Pseudomonas putida at 10 ug/ml after 24 hr by agar well diffusion method
[2] = tested on: Geobacillus stearothermophilus; test: Antibacterial activity against Geobacillus stearothermophilus MTCC 8508 at 10 ug/ml after 24 hr by agar well diffusion method
Bacillus subtilis [3] = test: Antibacterial activity against Bacillus subtilis MTCC 121 at 10 ug/ml after 24 hr by agar well diffusion method
Bacillus subtilis [4] = test: Antibacterial activity against Bacillus subtilis MTCC 121 at 100 ug/ml after 24 hr by agar well diffusion method
Aspergillus flavus [5] = test: Antifungal activity against Aspergillus flavus at 50 ug/ml after 96 hr
[6] = tested on: Geobacillus stearothermophilus; test: Antibacterial activity against Geobacillus stearothermophilus MTCC 8508 at 50 ug/ml after 24 hr by agar well diffusion method
Bacillus subtilis [7] = test: Antibacterial activity against Bacillus subtilis MTCC 121 at 50 ug/ml after 24 hr by agar well diffusion method
[8] = tested on: Geobacillus stearothermophilus; test: Antibacterial activity against Geobacillus stearothermophilus MTCC 8508 at 100 ug/ml after 24 hr by agar well diffusion method
Pseudomonas putida [9] = test: Antibacterial activity against Pseudomonas putida at 100 ug/ml after 24 hr by agar well diffusion method
Pseudomonas putida [10] = test: Antibacterial activity against Pseudomonas putida at 50 ug/ml after 24 hr by agar well diffusion method
Aspergillus flavus [11] = test: Antifungal activity against Aspergillus flavus at 10 ug/ml after 96 hr
Escherichia coli [12] = test: Antibacterial activity against Escherichia coli MTCC 51 at 100 ug/ml after 24 hr by agar well diffusion method
Aspergillus niger [13] = test: Antifungal activity against Aspergillus niger at 10 ug/ml after 96 hr
Escherichia coli [14] = test: Antibacterial activity against Escherichia coli MTCC 51 at 50 ug/ml after 24 hr by agar well diffusion method
Aspergillus niger [15] = test: Antifungal activity against Aspergillus niger at 100 ug/ml after 96 hr
Aspergillus niger [16] = test: Antifungal activity against Aspergillus niger at 50 ug/ml after 96 hr
Aspergillus flavus [17] = test: Antifungal activity against Aspergillus flavus at 100 ug/ml after 96 hr
Escherichia coli [18] = test: Antibacterial activity against Escherichia coli MTCC 51 at 10 ug/ml after 24 hr by agar well diffusion method

For `Cc1ccc(-c2nc3cc(Cl)ccc3o2)cc1`, the “diameter of the inhibition zone (DIZ)” value (Pseudomonas putida [1]) was 14.22%, the “diameter of the inhibition zone (DIZ)” value [2] was 17.92% and the “diameter of the inhibition zone (DIZ)” value (Bacillus subtilis [3]) was 17.22%. For the same compound, the “diameter of the inhibition zone (DIZ)” value (Bacillus subtilis [4]) was 42.13%, the inhibition at 50 µg/mL (Aspergillus flavus [5]) was 43.2% and the “diameter of the inhibition zone (DIZ)” value [6] was 30.87%. For the same compound, the “diameter of the inhibition zone (DIZ)” value (Bacillus subtilis [7]) was 31.37%, the “diameter of the inhibition zone (DIZ)” value [8] was 43.33% and the “diameter of the inhibition zone (DIZ)” value (Pseudomonas putida [9]) was 73.47%. The “diameter of the inhibition zone (DIZ)” value (Pseudomonas putida [10]) was 54.56%, the inhibition at 10 µg/mL (Aspergillus flavus [11]) was 20.1% and the “diameter of the inhibition zone (DIZ)” value (Escherichia coli [12]) was 43.33%. For the same compound, the inhibition at 10 µg/mL (Aspergillus niger [13]) was 4.19%, the “diameter of the inhibition zone (DIZ)” value (Escherichia coli [14]) was 32.77% and the inhibition at 100 µg/mL (Aspergillus niger [15]) was 21.4%. The inhibition at 50 µg/mL (Aspergillus niger [16]) was 7.47%, the inhibition at 100 µg/mL (Aspergillus flavus [17]) was 66.9% and the “diameter of the inhibition zone (DIZ)” value (Escherichia coli [18]) was 18.62%.

For `Cc1ccc(-c2nc3ccccc3o2)s1`, the “diameter of the inhibition zone (DIZ)” value (Pseudomonas putida [1]) was 13.47%, the “diameter of the inhibition zone (DIZ)” value [2] was “inactive” and the “diameter of the inhibition zone (DIZ)” value (Bacillus subtilis [3]) was “inactive”. The “diameter of the inhibition zone (DIZ)” value (Bacillus subtilis [4]) was 17.33%, the inhibition at 50 µg/mL (Aspergillus flavus [5]) was 51.6% and the “diameter of the inhibition zone (DIZ)” value [6] was 12.66%. The “diameter of the inhibition zone (DIZ)” value (Bacillus subtilis [7]) was 11.33%, the “diameter of the inhibition zone (DIZ)” value [8] was 19.66% and the “diameter of the inhibition zone (DIZ)” value (Pseudomonas putida [9]) was 35.45%. The “diameter of the inhibition zone (DIZ)” value (Pseudomonas putida [10]) was 22.33%, the inhibition at 10 µg/mL (Aspergillus flavus [11]) was 24.3% and the “diameter of the inhibition zone (DIZ)” value (Escherichia coli [12]) was 34.29%. The inhibition at 10 µg/mL (Aspergillus niger [13]) was 4.89%, the “diameter of the inhibition zone (DIZ)” value (Escherichia coli [14]) was 21.74% and the inhibition at 100 µg/mL (Aspergillus niger [15]) was 16.6%. The inhibition at 50 µg/mL (Aspergillus niger [16]) was 5.23%, the inhibition at 100 µg/mL (Aspergillus flavus [17]) was 88% and the “diameter of the inhibition zone (DIZ)” value (Escherichia coli [18]) was 12.45%.

In the case of `Cc1ccsc1-c1nc2cc(Cl)ccc2o1` [5-CHLORO-2-(3-METHYLTHIOPHEN-2-YL)BENZO[D]OXAZOLE], the “diameter of the inhibition zone (DIZ)” value (Pseudomonas putida [1]) is reported as 12.12%, the “diameter of the inhibition zone (DIZ)” value [2] is reported as 12.66% and the “diameter of the inhibition zone (DIZ)” value (Bacillus subtilis [3]) is reported as 10.34%. For the same compound, the “diameter of the inhibition zone (DIZ)” value (Bacillus subtilis [4]) was 29.33%, the inhibition at 50 µg/mL (Aspergillus flavus [5]) was 36.8% and the “diameter of the inhibition zone (DIZ)” value [6] was 23.44%. The “diameter of the inhibition zone (DIZ)” value (Bacillus subtilis [7]) was 21.67%, the “diameter of the inhibition zone (DIZ)” value [8] was 31.84% and the “diameter of the inhibition zone (DIZ)” value (Pseudomonas putida [9]) was 35.06%. For the same compound, the “diameter of the inhibition zone (DIZ)” value (Pseudomonas putida [10]) was 25.67%, the inhibition at 10 µg/mL (Aspergillus flavus [11]) was 21.1% and the “diameter of the inhibition zone (DIZ)” value (Escherichia coli [12]) was 33.17%. For the same compound, the inhibition at 10 µg/mL (Aspergillus niger [13]) was 17.5%, the “diameter of the inhibition zone (DIZ)” value (Escherichia coli [14]) was 24.56% and the inhibition at 100 µg/mL (Aspergillus niger [15]) was 76.5%. For the same compound, the inhibition at 50 µg/mL (Aspergillus niger [16]) was 47%, the inhibition at 100 µg/mL (Aspergillus flavus [17]) was 84.2% and the “diameter of the inhibition zone (DIZ)” value (Escherichia coli [18]) was 10.33%.
